Tests used:
[1] = target: T1, A2A (h) (Homo sapiens, UniProt P29274); experiment: Cerep binding, agonist radioligand; conditions: read-out: % Inhibition of Control Specific Binding
T1 construct: purchased Eurofins Pharma Discovery Services (CEREP diversity panel)

[2] = tested on: alpha 1 (non-selective); experiment: Cerep binding, antagonist radioligand; conditions: 5 µM
[3] = tested on: alpha 2 (non-selective); experiment: Cerep binding, antagonist radioligand; conditions: 5 µM
[4] = target: T2, B1 (h) (Homo sapiens, UniProt P46663); experiment: Cerep binding, agonist radioligand; conditions: read-out: % Inhibition of Control Specific Binding
T2 construct: purchased Eurofins Pharma Discovery Services (CEREP diversity panel)

[5] = target: T3, B2 (h) (Homo sapiens, UniProt P30411); experiment: Cerep binding, agonist radioligand; conditions: read-out: % Inhibition of Control Specific Binding
T3 construct: purchased Eurofins Pharma Discovery Services (CEREP diversity panel)

[6] = target: T4, CCK1 (CCKA) (h) (Homo sapiens, UniProt P32238); experiment: Cerep binding, agonist radioligand; conditions: read-out: % Inhibition of Control Specific Binding
T4 construct: purchased Eurofins Pharma Discovery Services (CEREP diversity panel)

[7] = target: T5, D1 (h) (Homo sapiens, UniProt P21728); experiment: Cerep binding, antagonist radioligand; conditions: read-out: % Inhibition of Control Specific Binding
T5 construct: purchased Eurofins Pharma Discovery Services (CEREP diversity panel)

[8] = target: T6, D2S (h) (Homo sapiens, UniProt P14416); experiment: Cerep binding, antagonist radioligand; conditions: read-out: % Inhibition of Control Specific Binding
T6 construct: purchased Eurofins Pharma Discovery Services (CEREP diversity panel)

[9] = target: T7, D3 (h) (Homo sapiens, UniProt P35462); experiment: Cerep binding, antagonist radioligand; conditions: read-out: % Inhibition of Control Specific Binding
T7 construct: purchased Eurofins Pharma Discovery Services (CEREP diversity panel)

[10] = tested on: GABA (non-selective); experiment: Cerep binding, agonist radioligand; conditions: 5 µM
[11] = target: T8, H1 (h) (Homo sapiens, UniProt P35367); experiment: Cerep binding, antagonist radioligand; conditions: read-out: % Inhibition of Control Specific Binding
T8 construct: purchased Eurofins Pharma Discovery Services (CEREP diversity panel)

[12] = target: T9, H2 (h) (Homo sapiens, UniProt P25021); experiment: Cerep binding, antagonist radioligand; conditions: read-out: % Inhibition of Control Specific Binding
T9 construct: purchased Eurofins Pharma Discovery Services (CEREP diversity panel)

[13] = target: T10, H3 (h) (Homo sapiens, UniProt Q9Y5N1); experiment: Cerep binding, agonist radioligand; conditions: read-out: % Inhibition of Control Specific Binding
T10 construct: purchased Eurofins Pharma Discovery Services (CEREP diversity panel)

[14] = tested on: I2; experiment: Cerep binding, antagonist radioligand; conditions: 5 µM
[15] = target: T11, BLT1 (LTB4) (h) (Homo sapiens, UniProt Q15722); experiment: Cerep binding, agonist radioligand; conditions: read-out: % Inhibition of Control Specific Binding
T11 construct: purchased Eurofins Pharma Discovery Services (CEREP diversity panel)

[16] = target: T12, MC4 (h) (Homo sapiens, UniProt P32245); experiment: Cerep binding, agonist radioligand; conditions: read-out: % Inhibition of Control Specific Binding
T12 construct: purchased Eurofins Pharma Discovery Services (CEREP diversity panel)

[17] = target: T13, NK2 (h) (Homo sapiens, UniProt P21452); experiment: Cerep binding, agonist radioligand; conditions: read-out: % Inhibition of Control Specific Binding
T13 construct: purchased Eurofins Pharma Discovery Services (CEREP diversity panel)

[18] = tested on: Y (non-selective); experiment: Cerep binding, agonist radioligand; conditions: 5 µM
[19] = target: T14, NOP (ORL1) (h) (Homo sapiens, UniProt P41146); experiment: Cerep binding, agonist radioligand; conditions: read-out: % Inhibition of Control Specific Binding
T14 construct: purchased Eurofins Pharma Discovery Services (CEREP diversity panel)

[20] = tested on: PCP; experiment: Cerep binding, antagonist radioligand; conditions: 5 µM
[21] = target: T15, EP2 (h) (Homo sapiens, UniProt P43116); experiment: Cerep binding, agonist radioligand; conditions: read-out: % Inhibition of Control Specific Binding
T15 construct: purchased Eurofins Pharma Discovery Services (CEREP diversity panel)

[22] = target: T16, IP (PGI2) (h) (Homo sapiens, UniProt P43119); experiment: Cerep binding, agonist radioligand; conditions: read-out: % Inhibition of Control Specific Binding
T16 construct: purchased Eurofins Pharma Discovery Services (CEREP diversity panel)

[23] = tested on: P2X; experiment: Cerep binding, agonist radioligand; conditions: 5 µM
[24] = tested on: 5-HT (non-selective); experiment: Cerep binding, agonist radioligand; conditions: 5 µM
[25] = tested on: sigma (non-selective) (h); experiment: Cerep binding, agonist radioligand; parameters: species or system human; conditions: 5 µM
[26] = tested on: ER (non-selective) (h); experiment: Cerep binding, agonist radioligand; parameters: species or system human; conditions: 5 µM
[27] = target: T17, AR (h) (Homo sapiens, UniProt P10275, T878A); experiment: Cerep binding, agonist radioligand; conditions: read-out: % Inhibition of Control Specific Binding
T17 construct: purchased Eurofins Pharma Discovery Services (CEREP diversity panel)

[28] = target: T18, V2 (h) (Homo sapiens, UniProt P30518); experiment: Cerep binding, agonist radioligand; conditions: read-out: % Inhibition of Control Specific Binding
T18 construct: purchased Eurofins Pharma Discovery Services (CEREP diversity panel)

[29] = tested on: Ca2+ channel (L, verapamil site) (phenylalkylamine); experiment: Cerep binding, antagonist radioligand; conditions: 5 µM
[30] = tested on: KATP channel; experiment: Cerep binding, antagonist radioligand; conditions: 5 µM
[31] = tested on: Na+ channel (site 2); experiment: Cerep binding, antagonist radioligand; conditions: 5 µM
[32] = tested on: Cl- channel (GABA-gated); experiment: Cerep binding, antagonist radioligand; conditions: 5 µM
[33] = target: T19, norepinephrine transporter (h) (Homo sapiens, UniProt P23975); experiment: Cerep binding, antagonist radioligand; conditions: read-out: % Inhibition of Control Specific Binding
T19 construct: purchased Eurofins Pharma Discovery Services (CEREP diversity panel)

[34] = target: T20, dopamine transporter (h) (Homo sapiens, UniProt Q01959); experiment: Cerep binding, antagonist radioligand; conditions: read-out: % Inhibition of Control Specific Binding
T20 construct: purchased Eurofins Pharma Discovery Services (CEREP diversity panel)

[35] = target: T21, 5-HT transporter (h) (Homo sapiens, UniProt P31645); experiment: Cerep binding, antagonist radioligand; conditions: read-out: % Inhibition of Control Specific Binding
T21 construct: purchased Eurofins Pharma Discovery Services (CEREP diversity panel)

[36] = target: T22, PDE1B (h) (Homo sapiens, UniProt Q01064); experiment: Cerep enzyme and cell-based assays; type: biochemical; conditions: read-out: % Inhibition of Control Values
T22 construct: purchased Eurofins Pharma Discovery Services (CEREP diversity panel)

[37] = target: T23, PDE2A1 (h) (Homo sapiens, UniProt O00408); experiment: Cerep enzyme and cell-based assays; type: biochemical; conditions: read-out: % Inhibition of Control Values
T23 construct: Eurofins Pharma Discovery Services (CEREP diversity panel, outsourced assay)

[38] = target: T24, PDE4D2 (h) (Homo sapiens, UniProt Q08499); experiment: Cerep enzyme and cell-based assays; type: biochemical; conditions: read-out: % Inhibition of Control Values
T24 construct: Eurofins Pharma Discovery Services (CEREP diversity panel, outsourced assay)

[39] = target: T25, PDE5 (h) (non-selective) (Homo sapiens, UniProt O76074); experiment: Cerep enzyme and cell-based assays; type: biochemical; conditions: read-out: % Inhibition of Control Values
T25 construct: Eurofins Pharma Discovery Services (CEREP diversity panel, outsourced assay)

[40] = target: T26, Eg5 (h) (Homo sapiens, UniProt P52732); experiment: Cerep enzyme and cell-based assays; type: biochemical; conditions: read-out: % Inhibition of Control Values
T26 construct: Eurofins Pharma Discovery Services (CEREP diversity panel, outsourced assay)

[41] = target: T27, HDAC3 (h) (Homo sapiens, UniProt O15379); experiment: Cerep enzyme and cell-based assays; type: biochemical; conditions: read-out: % Inhibition of Control Values
T27 construct: Eurofins Pharma Discovery Services (CEREP diversity panel, outsourced assay)

[42] = target: T28, sirtuin 2 (h) (inhibitor effect) (Homo sapiens, UniProt Q8IXJ6); experiment: Cerep enzyme and cell-based assays; type: biochemical; conditions: read-out: % Inhibition of Control Values
T28 construct: Eurofins Pharma Discovery Services (CEREP diversity panel, outsourced assay)

[43] = tested on: S6P phosphorylation; experiment: western blot, S6P phosphorylation in PANC-1
Protocol: (§1) To examine whether PDEδ inhibition by Deltarasin and Deltazinone 1 downregulates the signal transduction via these pathways, we examined the phosphorylation of extracellular signal regulated kinase (Erk) and S6 Ribosomal Protein (S6P) in the oncogenic KRas-dependent Panc-Tu-1 and KRas-independent PANC-1 cells. […] Cells were lysed with RIPA-buffer (20 mM Tris pH 7.5, 150 mM NaCl, 0.5 mM Na2 EDTA, 1 % sodium deoxycholate, 0.1% sodium dodecyl sulfate, 1% IGEPAL supplemented with Complete Mini EDTA-free protease inhibitor (Roche Applied Science) and 1% phosphatase inhibitor cocktail 2 and 3 (P5726 and P0044, Sigma Aldrich), scraped off after 5 min on ice and centrifuged at 14,000g for 20 min at 4 °C. SDS–polyacrylamide gel electrophoresis was carried out with 10–25 μg of whole-cell lysate from each sample. The gels were blotted onto polyvinylidene difluoride membrane (Millipore) and blocked for 1 h at room temperature. […] Blots were scanned on a LI-COR Odyssey imaging system.
(§2) Western blots were quantified using ImageJ. The background of the blots was subtracted by applying the rolling ball subtraction with a radius of 50 pixels. Afterwards the integrated intensity of the bands was measured.

[44] = tested on: Erk phosphorylation; experiment: western blot, Erk phosphorylation in Panc-Tu-I
Protocol: as §1, §2

[45] = tested on: S6P phosphorylation; experiment: western blot, S6P phosphorylation in Panc-Tu-I; conditions: for EGF-induced S6P phosphorylation: 1 h, 5 μM Deltarasin or 20 μM Deltazinone 1, 5 min EGF
Protocol: as §1, §2

[46] = 20 μM, longer incubation times (>3 h)
[47] = 1 h, 5 μM Deltarasin or 20 μM Deltazinone 1, 5 min EGF

T15 sequence (P43116 whole entry): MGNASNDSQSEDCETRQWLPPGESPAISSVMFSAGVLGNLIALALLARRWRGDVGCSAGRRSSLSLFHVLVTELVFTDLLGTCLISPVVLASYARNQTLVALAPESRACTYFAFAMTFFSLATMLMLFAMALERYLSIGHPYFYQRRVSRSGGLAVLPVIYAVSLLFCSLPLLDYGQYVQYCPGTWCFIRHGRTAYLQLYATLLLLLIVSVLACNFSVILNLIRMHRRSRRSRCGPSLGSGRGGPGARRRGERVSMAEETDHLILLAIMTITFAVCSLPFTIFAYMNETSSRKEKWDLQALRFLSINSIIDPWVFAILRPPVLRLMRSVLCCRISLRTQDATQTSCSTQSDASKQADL
T8 sequence (P35367 whole entry): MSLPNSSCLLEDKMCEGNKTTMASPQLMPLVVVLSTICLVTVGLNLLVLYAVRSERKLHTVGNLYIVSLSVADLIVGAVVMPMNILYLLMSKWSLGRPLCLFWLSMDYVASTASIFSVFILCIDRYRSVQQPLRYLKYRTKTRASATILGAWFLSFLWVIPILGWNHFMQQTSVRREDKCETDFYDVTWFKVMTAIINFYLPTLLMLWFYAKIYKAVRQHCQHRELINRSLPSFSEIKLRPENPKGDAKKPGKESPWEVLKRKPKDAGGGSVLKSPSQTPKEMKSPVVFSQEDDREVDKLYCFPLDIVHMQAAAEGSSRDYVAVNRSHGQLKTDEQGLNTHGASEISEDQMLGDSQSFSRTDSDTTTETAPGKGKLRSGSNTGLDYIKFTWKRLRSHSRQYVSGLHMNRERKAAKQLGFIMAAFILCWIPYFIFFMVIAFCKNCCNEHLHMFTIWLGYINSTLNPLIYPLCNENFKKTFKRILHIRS
T12 sequence (P32245 whole entry): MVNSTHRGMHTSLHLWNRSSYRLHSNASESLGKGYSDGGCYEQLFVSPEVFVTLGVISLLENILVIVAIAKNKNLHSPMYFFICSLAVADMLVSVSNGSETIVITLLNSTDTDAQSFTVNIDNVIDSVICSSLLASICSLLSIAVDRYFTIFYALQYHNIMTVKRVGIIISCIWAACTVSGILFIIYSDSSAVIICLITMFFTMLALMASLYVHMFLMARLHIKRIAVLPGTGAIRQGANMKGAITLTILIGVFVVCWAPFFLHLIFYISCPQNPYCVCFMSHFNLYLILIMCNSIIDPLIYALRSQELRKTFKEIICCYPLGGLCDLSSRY
T10 sequence (Q9Y5N1 whole entry): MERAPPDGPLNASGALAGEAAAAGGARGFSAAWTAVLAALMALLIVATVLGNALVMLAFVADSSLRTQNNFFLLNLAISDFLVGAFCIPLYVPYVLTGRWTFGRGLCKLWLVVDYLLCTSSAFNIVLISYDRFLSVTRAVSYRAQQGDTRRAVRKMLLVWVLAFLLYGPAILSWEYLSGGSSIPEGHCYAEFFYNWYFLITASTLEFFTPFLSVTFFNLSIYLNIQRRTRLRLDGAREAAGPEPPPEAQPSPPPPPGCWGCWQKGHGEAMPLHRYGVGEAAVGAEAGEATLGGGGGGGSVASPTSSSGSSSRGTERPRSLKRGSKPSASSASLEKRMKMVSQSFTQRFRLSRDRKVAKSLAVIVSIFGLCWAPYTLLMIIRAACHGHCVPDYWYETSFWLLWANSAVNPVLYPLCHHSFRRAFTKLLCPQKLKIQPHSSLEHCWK
T28 sequence (Q8IXJ6 whole entry): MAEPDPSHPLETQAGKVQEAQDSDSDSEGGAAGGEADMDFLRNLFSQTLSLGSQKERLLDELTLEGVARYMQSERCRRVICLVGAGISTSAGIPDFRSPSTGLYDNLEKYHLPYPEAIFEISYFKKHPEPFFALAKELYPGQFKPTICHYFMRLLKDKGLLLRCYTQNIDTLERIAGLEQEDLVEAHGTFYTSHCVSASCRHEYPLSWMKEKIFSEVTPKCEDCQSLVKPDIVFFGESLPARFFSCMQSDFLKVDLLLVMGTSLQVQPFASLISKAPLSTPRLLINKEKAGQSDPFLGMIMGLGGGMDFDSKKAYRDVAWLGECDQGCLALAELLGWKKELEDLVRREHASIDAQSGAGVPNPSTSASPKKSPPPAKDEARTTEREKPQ
T22 sequence (Q01064 whole entry): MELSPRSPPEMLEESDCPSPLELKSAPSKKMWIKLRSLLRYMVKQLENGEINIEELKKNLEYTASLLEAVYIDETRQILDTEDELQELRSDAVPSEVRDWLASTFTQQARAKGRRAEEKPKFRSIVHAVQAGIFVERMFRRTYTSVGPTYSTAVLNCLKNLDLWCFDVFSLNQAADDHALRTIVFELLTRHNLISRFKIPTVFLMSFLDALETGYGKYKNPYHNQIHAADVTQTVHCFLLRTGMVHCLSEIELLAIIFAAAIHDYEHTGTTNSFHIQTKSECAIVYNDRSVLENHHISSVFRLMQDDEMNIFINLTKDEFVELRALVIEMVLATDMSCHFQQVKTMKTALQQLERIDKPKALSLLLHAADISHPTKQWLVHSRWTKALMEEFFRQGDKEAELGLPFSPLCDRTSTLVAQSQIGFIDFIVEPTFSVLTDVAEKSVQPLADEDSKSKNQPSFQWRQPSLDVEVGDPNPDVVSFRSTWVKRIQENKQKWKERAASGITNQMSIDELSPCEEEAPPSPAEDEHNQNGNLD
T3 sequence (P30411 whole entry): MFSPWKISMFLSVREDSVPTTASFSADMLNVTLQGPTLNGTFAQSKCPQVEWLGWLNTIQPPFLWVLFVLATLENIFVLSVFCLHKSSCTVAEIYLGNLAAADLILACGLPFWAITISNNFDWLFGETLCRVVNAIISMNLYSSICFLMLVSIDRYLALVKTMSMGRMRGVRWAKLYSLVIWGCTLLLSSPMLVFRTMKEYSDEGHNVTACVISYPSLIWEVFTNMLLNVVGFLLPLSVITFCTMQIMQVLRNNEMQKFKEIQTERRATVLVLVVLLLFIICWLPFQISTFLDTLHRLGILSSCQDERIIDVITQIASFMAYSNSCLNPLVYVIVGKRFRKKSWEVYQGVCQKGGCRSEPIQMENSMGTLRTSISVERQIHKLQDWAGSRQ
T19 sequence (P23975 whole entry): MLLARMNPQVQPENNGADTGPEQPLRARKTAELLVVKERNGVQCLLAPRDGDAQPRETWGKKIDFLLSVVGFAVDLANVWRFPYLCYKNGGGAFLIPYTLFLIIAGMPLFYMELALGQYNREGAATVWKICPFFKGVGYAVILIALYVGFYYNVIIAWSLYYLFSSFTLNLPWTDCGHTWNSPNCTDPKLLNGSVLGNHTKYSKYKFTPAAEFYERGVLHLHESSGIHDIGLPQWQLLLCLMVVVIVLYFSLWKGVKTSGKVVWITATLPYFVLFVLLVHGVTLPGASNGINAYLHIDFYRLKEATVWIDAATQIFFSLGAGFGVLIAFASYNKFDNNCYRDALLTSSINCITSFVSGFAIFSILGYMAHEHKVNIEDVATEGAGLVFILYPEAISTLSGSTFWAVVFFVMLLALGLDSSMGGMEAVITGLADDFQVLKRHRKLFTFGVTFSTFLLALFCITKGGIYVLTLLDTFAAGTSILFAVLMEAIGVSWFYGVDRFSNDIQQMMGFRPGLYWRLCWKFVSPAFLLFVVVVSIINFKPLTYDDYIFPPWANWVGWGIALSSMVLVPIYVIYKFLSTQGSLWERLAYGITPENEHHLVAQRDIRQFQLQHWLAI
T20 sequence (Q01959 whole entry): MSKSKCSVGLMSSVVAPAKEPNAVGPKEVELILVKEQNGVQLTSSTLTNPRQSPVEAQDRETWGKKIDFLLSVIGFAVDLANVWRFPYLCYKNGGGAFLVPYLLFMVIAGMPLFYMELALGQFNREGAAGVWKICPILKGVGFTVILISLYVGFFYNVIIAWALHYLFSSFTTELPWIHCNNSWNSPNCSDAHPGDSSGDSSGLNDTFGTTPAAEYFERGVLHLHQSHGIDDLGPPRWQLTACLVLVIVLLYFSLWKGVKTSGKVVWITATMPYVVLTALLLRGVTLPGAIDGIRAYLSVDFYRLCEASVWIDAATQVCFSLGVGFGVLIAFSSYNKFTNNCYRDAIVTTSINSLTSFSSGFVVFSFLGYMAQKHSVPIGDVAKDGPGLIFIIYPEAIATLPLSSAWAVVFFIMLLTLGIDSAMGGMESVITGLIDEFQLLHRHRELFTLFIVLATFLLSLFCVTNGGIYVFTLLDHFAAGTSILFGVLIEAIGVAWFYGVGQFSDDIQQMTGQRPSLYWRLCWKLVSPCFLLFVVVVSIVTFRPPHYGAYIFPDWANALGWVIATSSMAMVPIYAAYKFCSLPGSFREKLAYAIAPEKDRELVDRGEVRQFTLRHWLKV
T21 sequence (P31645 whole entry): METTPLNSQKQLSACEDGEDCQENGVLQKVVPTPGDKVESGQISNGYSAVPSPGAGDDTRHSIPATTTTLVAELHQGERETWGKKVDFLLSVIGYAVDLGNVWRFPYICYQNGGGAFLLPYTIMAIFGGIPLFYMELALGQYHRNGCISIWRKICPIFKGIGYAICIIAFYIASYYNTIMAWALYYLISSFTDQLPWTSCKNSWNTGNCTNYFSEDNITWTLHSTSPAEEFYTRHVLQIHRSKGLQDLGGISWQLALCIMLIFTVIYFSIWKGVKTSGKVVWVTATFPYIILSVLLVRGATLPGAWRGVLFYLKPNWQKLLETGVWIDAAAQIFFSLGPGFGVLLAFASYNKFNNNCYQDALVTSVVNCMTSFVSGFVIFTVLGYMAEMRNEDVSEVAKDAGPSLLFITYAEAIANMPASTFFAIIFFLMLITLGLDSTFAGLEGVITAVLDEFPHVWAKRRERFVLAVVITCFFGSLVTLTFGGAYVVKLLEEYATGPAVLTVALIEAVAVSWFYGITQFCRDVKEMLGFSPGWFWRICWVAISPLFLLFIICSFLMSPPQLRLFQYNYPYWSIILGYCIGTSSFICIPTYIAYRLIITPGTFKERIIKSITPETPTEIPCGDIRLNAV

Cc1ccc(-n2nc3c(=O)n(CCCC(=O)NCC(C)c4ccccc4)nc(C)c3c2C)cc1 (centres unmarked) [2k]
inhibition at 5 µM [1]: -6% | % Inhibition of Control Specific Binding [2]: 4% | % Inhibition of Control Specific Binding [3]: 3% | inhibition at 5 µM [4]: -4% | inhibition at 5 µM [5]: -5% | inhibition at 5 µM [6]: 22% | inhibition at 5 µM [7]: 2% | inhibition at 5 µM [8]: -1% | inhibition at 5 µM [9]: 18% | % Inhibition of Control Specific Binding [10]: -7% | inhibition at 5 µM [11]: 2% | inhibition at 5 µM [12]: 5% | inhibition at 5 µM [13]: -10% | % Inhibition of Control Specific Binding [14]: 39% | inhibition at 5 µM [15]: 16% | inhibition at 5 µM [16]: -1% | inhibition at 5 µM [17]: -4% | % Inhibition of Control Specific Binding [18]: -19% | inhibition at 5 µM [19]: 6% | % Inhibition of Control Specific Binding [20]: -8% | inhibition at 5 µM [21]: 6% | inhibition at 5 µM [22]: -4% | % Inhibition of Control Specific Binding [23]: 1% | % Inhibition of Control Specific Binding [24]: -25% | % Inhibition of Control Specific Binding [25]: 3% | % Inhibition of Control Specific Binding [26]: -15% | inhibition at 5 µM [27]: 5% | inhibition at 5 µM [28]: -4% | % Inhibition of Control Specific Binding [29]: -23% | % Inhibition of Control Specific Binding [30]: 16% | % Inhibition of Control Specific Binding [31]: 4% | % Inhibition of Control Specific Binding [32]: 17% | inhibition at 5 µM [33]: 8% | inhibition at 5 µM [34]: 17% | inhibition at 5 µM [35]: -8% | inhibition at 5 µM [36]: 7% | inhibition at 5 µM [37]: 2% | inhibition at 5 µM [38]: 3% | inhibition at 5 µM [39]: 3% | inhibition at 5 µM [40]: 3% | inhibition at 5 µM [41]: 0% | inhibition at 5 µM [42]: 6% | S6P phosphorylation ([43]; PANC-1, 20 μM, longer incubation times (>3 h)): remained unaffected | EGF-induced Erk phosphorylation [44, 46]: reduced | EGF-induced Erk phosphorylation [44, 47]: did not significantly affect | S6P phosphorylation [45, 46]: further decreased | EGF-induced S6P phosphorylation [45]: reduced S6P phosphorylation

c1ccc(Cn2c(-c3ccc(OC[C@H](C4CCNCC4)n4c(-c5ccccc5)nc5ccccc54)cc3)nc3ccccc32)cc1 [Deltarasin, reference compound]
inhibition at 5 µM [1]: 28% | % Inhibition of Control Specific Binding [2]: 33% | % Inhibition of Control Specific Binding [3]: 1% | inhibition at 5 µM [4]: 3% | inhibition at 5 µM [5]: 10% | inhibition at 5 µM [6]: 58% | inhibition at 5 µM [7]: 99% | inhibition at 5 µM [8]: 98% | inhibition at 5 µM [9]: 93% | % Inhibition of Control Specific Binding [10]: 14% | inhibition at 5 µM [11]: 78% | inhibition at 5 µM [12]: 38% | inhibition at 5 µM [13]: -2% | % Inhibition of Control Specific Binding [14]: 19% | inhibition at 5 µM [15]: 19% | inhibition at 5 µM [16]: 32% | inhibition at 5 µM [17]: 97% | % Inhibition of Control Specific Binding [18]: 10% | inhibition at 5 µM [19]: 10% | % Inhibition of Control Specific Binding [20]: -6% | inhibition at 5 µM [21]: 28% | inhibition at 5 µM [22]: 8% | % Inhibition of Control Specific Binding [23]: 10% | % Inhibition of Control Specific Binding [24]: -1% | % Inhibition of Control Specific Binding [25]: 57% | % Inhibition of Control Specific Binding [26]: -19% | inhibition at 5 µM [27]: -23% | inhibition at 5 µM [28]: 20% | % Inhibition of Control Specific Binding [29]: 54% | % Inhibition of Control Specific Binding [30]: -10% | % Inhibition of Control Specific Binding [31]: 83% | % Inhibition of Control Specific Binding [32]: 2% | inhibition at 5 µM [33]: 70% | inhibition at 5 µM [34]: 65% | inhibition at 5 µM [35]: 39% | inhibition at 5 µM [36]: 12% | inhibition at 5 µM [37]: 3% | inhibition at 5 µM [38]: 7% | inhibition at 5 µM [39]: 92% | inhibition at 5 µM [40]: 9% | inhibition at 5 µM [41]: 23% | inhibition at 5 µM [42]: 15% | EGF-induced S6P phosphorylation ([43]; PANC-1, 1 h, 5 μM Deltarasin, 5 min EGF): reduced in both lines | EGF-induced Erk phosphorylation [44, 47]: reduced | EGF-induced S6P phosphorylation [45]: reduced in both lines

— publication PMC4843002, “Identification of pyrazolopyridazinones as PDEδ inhibitors” (Nature Communications, 2016)
